We go through 38 molecules from patent US20260132127A1, “NOVEL SPIRO COMPOUND” (MITSUBISHI TANABE PHARMA CORPORATION, priority 2021, published 2026).

The experiment concerns the target T1, human TRH-DE (Homo sapiens, UniProt Q9UKU6).
T1 construct: expressed in transfected cells; host or cells: Expi 293 cells (transient expression), membrane fraction
T1 sequence (Q9UKU6 1-1069): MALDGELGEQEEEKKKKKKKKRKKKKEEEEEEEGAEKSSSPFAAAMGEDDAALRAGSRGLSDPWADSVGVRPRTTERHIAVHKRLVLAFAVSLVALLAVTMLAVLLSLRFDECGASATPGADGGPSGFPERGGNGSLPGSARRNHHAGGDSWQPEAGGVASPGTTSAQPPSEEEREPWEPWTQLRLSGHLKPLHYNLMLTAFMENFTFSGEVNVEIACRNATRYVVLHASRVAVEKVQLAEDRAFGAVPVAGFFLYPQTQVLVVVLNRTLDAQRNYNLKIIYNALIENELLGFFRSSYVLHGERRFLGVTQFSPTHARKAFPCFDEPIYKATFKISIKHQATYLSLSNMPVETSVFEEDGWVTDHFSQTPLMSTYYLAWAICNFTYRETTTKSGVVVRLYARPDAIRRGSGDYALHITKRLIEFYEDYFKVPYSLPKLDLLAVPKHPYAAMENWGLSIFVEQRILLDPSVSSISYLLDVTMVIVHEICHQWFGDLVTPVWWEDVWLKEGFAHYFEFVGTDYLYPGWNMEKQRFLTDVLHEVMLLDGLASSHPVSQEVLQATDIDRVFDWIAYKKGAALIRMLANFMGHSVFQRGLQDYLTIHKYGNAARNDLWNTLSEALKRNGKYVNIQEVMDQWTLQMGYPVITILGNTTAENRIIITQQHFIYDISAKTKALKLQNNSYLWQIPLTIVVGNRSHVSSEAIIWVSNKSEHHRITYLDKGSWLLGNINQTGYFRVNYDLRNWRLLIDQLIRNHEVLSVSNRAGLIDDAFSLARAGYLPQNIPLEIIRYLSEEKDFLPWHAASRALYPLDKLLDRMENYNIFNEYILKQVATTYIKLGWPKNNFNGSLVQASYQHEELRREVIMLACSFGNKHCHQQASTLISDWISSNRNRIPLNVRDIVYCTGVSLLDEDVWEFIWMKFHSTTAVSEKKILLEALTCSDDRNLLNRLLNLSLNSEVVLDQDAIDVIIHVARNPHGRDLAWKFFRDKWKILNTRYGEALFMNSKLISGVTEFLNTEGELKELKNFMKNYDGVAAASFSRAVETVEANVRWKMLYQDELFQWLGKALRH
In words: TRH-DE inhibition test (RapidFire MS measurement of product Cyclo (His-Pro)). It counts as biochemical. Conditions: membrane fraction of Expi 293 cells expressing human TRH-DE; 10 μM TRH substrate; room temperature, 2 hours; 16-point concentration test. In outline: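 Inhibition derived from product/internal-standard ratios of Cyclo(His-Pro), quantified by RapidFire triple-quadrupole MS after acetonitrile:methanol quench, with IC50 fitted over 16 concentrations. Enzyme source: membranes of Expi 293 cells transiently expressing human TRH-DE, 4 μg/ml, pH 7.4 phosphate buffer. Incubation with 10 μM substrate ran 2 h at room temperature.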
For `C[C@@H]1CN(C(=O)c2ccccc2)c2cccnc2C(=O)N1C1CC2(C1)CN(S(=O)(=O)c1ccccc1F)C2` [Example 308], the IC50 was determined as 655 nM.

Molecule `C[C@@H]1CCn2cncc2C(=O)N1C1CC2(C1)CN(S(=O)(=O)c1ccccc1F)C2` [Example 309, (7R)-8-[2-(2-fluorophenyl)sulfonyl-2-azaspiro[3.3]heptan-6-yl]-7-methyl-6,7-dihydro-5H-imidazo[1,5-a][1,4]diazepin-9-one] gave an IC50 of 32 nM. For `C[C@@H]1CCn2cnc(C3CC3)c2C(=O)N1C1CC2(C1)CN(S(=O)(=O)c1ccccc1F)C2` [Example 310] the value was 41 nM; for `C[C@@H]1COc2cc(C3CC3)cnc2C(=O)N1C1CC2(C1)CN(S(=O)(=O)c1ccccc1F)C2` [Example 311], 1 nM; for `Cc1cc2c(cn1)C(=O)N(C1CC3(C1)CN(S(=O)(=O)c1ccccc1F)C3)[C@H](C)CO2` [Example 312], 2 nM. For `C[C@@H]1COc2cc(C3CC3)ncc2C(=O)N1C1CC2(C1)CN(S(=O)(=O)c1ccccc1F)C2` [Example 313] the value was 1 nM; for `Cc1ccc2c(n1)OC[C@@H](C)N(C1CC3(C1)CN(S(=O)(=O)c1ccccc1F)C3)C2=O` [Example 314], 9 nM; for `C[C@@H]1COc2ncc(C3CC3)cc2C(=O)N1C1CC2(C1)CN(S(=O)(=O)c1ccccc1F)C2` [Example 315], 3 nM. On to `C[C@@H]1COc2nc(C3CC3)ccc2C(=O)N1C1CC2(C1)CN(S(=O)(=O)c1ccccc1F)C2` [Example 316], for which half-maximal inhibition (IC50) required 2 nM. Against the preceding molecule, the IC50 is about 1.5-fold lower.

Regarding `Cc1nc2c(cc1F)C(=O)N(C1CC3(C1)CN(S(=O)(=O)c1ccccc1F)C3)[C@H](C)CO2` [Example 317], the IC50 was determined as 3 nM. The figure for `Cc1ncc2c(n1)OC[C@@H](C)N(C1CC3(C1)CN(S(=O)(=O)c1ccccc1F)C3)C2=O` [Example 318] is 9 nM; for `C[C@@H]1CCn2ncc(C3CC3)c2C(=O)N1C1CC2(C1)CN(S(=O)(=O)c1ccccc1F)C2` [Example 319] it is 22 nM. The molecule `C[C@@H]1CCn2nc(F)c(C3CC3)c2C(=O)N1C1CC2(C1)CN(S(=O)(=O)c1ccccc1F)C2` [Example 320] yielded an IC50 of 72 nM. For `C[C@@H]1COc2nn(C)c(C3CC3)c2C(=O)N1C1CC2(C1)CN(S(=O)(=O)c1ccccc1F)C2` [Example 321] the value was 74 nM. For `C[C@@H]1CCn2c(cnc2C2CC2)C(=O)N1C1CC2(C1)CN(S(=O)(=O)c1ccccc1F)C2` [Example 322] the value was 7 nM; for `Cc1nc(C2CC2)n2c1C(=O)N(C1CC3(C1)CN(S(=O)(=O)c1ccccc1F)C3)[C@H](C)CC2` [Example 323], 103 nM. The figure for `Cc1onc2c1OC[C@@H](C)N(C1CC3(C1)CN(S(=O)(=O)c1ccccc1F)C3)C2=O` [Example 324] is 37 nM; for `C[C@@H]1COc2c(noc2C2CC2)C(=O)N1C1CC2(C1)CN(S(=O)(=O)c1ccccc1F)C2` [Example 325] it is 17 nM; for `C[C@@H]1Cn2ncc(C3CC3)c2C(=O)N1C1CC2(C1)CN(S(=O)(=O)c1ccccc1F)C2` [Example 326] it is 4 nM. Consider `C[C@@H]1Cn2nc(F)c(C3CC3)c2C(=O)N1C1CC2(C1)CN(S(=O)(=O)c1ccccc1F)C2` [Example 327], for which the IC50 stood at 6 nM. Against the preceding molecule, the IC50 is about 1.5-fold higher.

`C[C@@H]1Cn2cnc(C3CC3)c2C(=O)N1C1CC2(C1)CN(S(=O)(=O)c1ccccc1F)C2` [Example 328]: the IC50 was 14 nM. `Cc1nc(C2CC2)c2n1C[C@@H](C)N(C1CC3(C1)CN(S(=O)(=O)c1ccccc1F)C3)C2=O` [Example 329] returned an IC50 of 67 nM. Molecule `C[C@@H]1Cn2cc(C3CC3)nc2C(=O)N1C1CC2(C1)CN(S(=O)(=O)c1ccccc1F)C2` [Example 330] registered an IC50 of 19 nM. This IC50 lies about 3.5-fold lower than the previous one. `C[C@@H]1COc2nc(C3CC3)ncc2C(=O)N1C1CC2(C1)CN(S(=O)(=O)c1ccccc1F)C2` [Example 331, (7R)-2-cyclopropyl-6-[2-(2-fluorophenyl)sulfonyl-2-azaspiro[3.3]heptan-6-yl]-7-methyl-7,8-dihydropyrimido[5,4-f][1,4]oxazepin-5-one] showed an IC50 of 3 nM. The figure for `C[C@@H]1COc2cc(C#N)cnc2C(=O)N1C1CC2(C1)CN(S(=O)(=O)c1ccccc1F)C2` [Example 332, (3R)-4-[2-(2-fluorophenyl)sulfonyl-2-azaspiro[3.3]heptan-6-yl]-3-methyl-5-oxo-2,3-dihydropyrido[2,3-f][1,4]oxazepin-8-carbonitrile] is 4 nM. For `C[C@@H]1COc2ncc(C#N)cc2C(=O)N1C1CC2(C1)CN(S(=O)(=O)c1ccccc1F)C2` [Example 333, (3R)-4-[2-(2-fluorophenyl)sulfonyl-2-azaspiro[3.3]heptan-6-yl]-3-methyl-5-oxo-2,3-dihydropyrido[3,2-f][1,4]oxazepin-7-carbonitrile] the value was 18 nM; for `Cc1nc2c(cc1C#N)C(=O)N(C1CC3(C1)CN(S(=O)(=O)c1ccccc1F)C3)[C@H](C)CO2` [Example 334], 18 nM. In the case of `CC(=O)c1cnc2c(c1)OC[C@@H](C)N(C1CC3(C1)CN(S(=O)(=O)c1ccccc1F)C3)C2=O` [Example 336], the IC50 stood at 2 nM. `C[C@@H]1COc2cc(C(F)(F)F)cnc2C(=O)N1C1CC2(C1)CN(S(=O)(=O)c1ccccc1F)C2` [Example 337] gave an IC50 of 2 nM. `C[C@@H]1CNc2cccnc2C(=O)N1C1CC2(C1)CN(S(=O)(=O)c1ccccc1F)C2` [Example 338, (3R)-4-[2-(2-fluorophenyl)sulfonyl-2-azaspiro[3.3]heptan-6-yl]-3-methyl-2,3-dihydro-1H-pyrido[3,2-e][1,4]diazepin-5-one] gave an IC50 of 4 nM. With `CC1CCc2[nH]c(=O)ccc2C(=O)N1C1CC2(C1)CN(S(=O)(=O)c1ccccc1F)C2` (centres unmarked) [Example 339, 6-[2-(2-fluorophenyl)sulfonyl-2-azaspiro[3.3]heptan-6-yl]-7-methyl-1,7,8,9-tetrahydropyrido[3,2-c]azepin-2,5-dione], the midpoint of inhibition, the IC50, lay at 78 nM. The figure for `C[C@@H]1COc2nc(C(F)F)cnc2C(=O)N1C1CC2(C1)CN(S(=O)(=O)c1ccccc1F)C2` [Example 341, (7R)-3-(difluoromethyl)-8-[2-(2-fluorophenyl)sulfonyl-2-azaspiro[3.3]heptan-6-yl]-7-methyl-6,7-dihydropyrazino[2,3-f][1,4]oxazepin-9-one] is 5 nM. For `C[C@@H]1CCn2c(C3CC3)nc(C(F)F)c2C(=O)N1C1CC2(C1)CN(S(=O)(=O)c1ccccc1F)C2` [Example 342, (7R)-3-cyclopropyl-1-(difluoromethyl)-8-[2-(2-fluorophenyl)sulfonyl-2-azaspiro[3.3]heptan-6-yl]-7-methyl-6,7-dihydro-5H-imidazo[1,5-a][1,4]diazepin-9-one] the value was 50 nM; for `CC1Cc2cc(C(F)(F)F)ncc2C(=O)N1C1CC2(C1)CN(S(=O)(=O)c1ccccc1F)C2` (centres unmarked) [Example 343, 2-[2-(2-fluorophenyl)sulfonyl-2-azaspiro[3.3]heptan-6-yl]-3-methyl-6-(trifluoromethyl)-3,4-dihydro-2,7-naphthyridin-1-one], 18 nM; for `CC1(C)Oc2cc(Cl)ncc2C(=O)N1C1CC2(C1)CN(S(=O)(=O)c1ccccc1F)C2` [Example 344, 7-chloro-3-[2-(2-fluorophenyl)sulfonyl-2-azaspiro[3.3]heptan-6-yl]-2,2-dimethyl-pyrido[3,4-e][1,3]oxazin-4-one], 75 nM.

In the case of `C[C@@H]1Cn2c(ccc2C(F)(F)F)C(=O)N1C1CC2(C1)CN(S(=O)(=O)c1ccccc1F)C2` [Example 345, (3R)-2-[2-(2-fluorophenyl)sulfonyl-2-azaspiro[3.3]heptan-6-yl]-3-methyl-6-(trifluoromethyl)-3,4-dihydropyrrolo[1,2-a]pyrazin-1-one], the midpoint of inhibition, the IC50, lay at 167 nM. This IC50 is about 2.2-fold higher than that of the molecule before. The figure for `C[C@@H]1CNc2nc(C(F)(F)F)ccc2C(=O)N1C1CC2(C1)CN(S(=O)(=O)c1ccccc1F)C2` [Example 346, (3R)-4-[2-(2-fluorophenyl)sulfonyl-2-azaspiro[3.3]heptan-6-yl]-3-methyl-8-(trifluoromethyl)-2,3-dihydro-1H-pyrido[2,3-e][1,4]diazepin-5-one] is 2 nM; for `Cc1nc2c(s1)C(C)N(C1CC3(C1)CN(S(=O)(=O)c1ccccc1F)C3)C2=O` (centres unmarked) [Example 347] it is 185 nM.
